Test results published in PubChem BioAssay AID2060606 (Molecular Pharmacology Branch, DTP, NCI, 2025).

Tested on: 922993-354-T-J3-PDC complex spheroids, viability, % test/control
Assay: Anticancer human tumor 922993-354-T-J3-PDC patient-derived endometrial carcinoma cell line growth inhibition [CLK]
Settings: for IC50: curve of first compound; for viability, T/C: stronger effect = lower value
Summary of the method: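 Patient-derived tumor cells grown as complex spheroids with HUVEC endothelial cells and mesenchymal stem cells, treated with drug combinations. Concentrations descend in half-log steps from near clinical Cmax, or from 10 microM if Cmax unknown.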

[1] = second compound 0.0316 µM, first compound 0.0316 µM
[2] = second compound 0.0316 µM, first compound 0.1 µM
[3] = second compound 0.0316 µM, first compound 0.316 µM
[4] = second compound 0.0316 µM, first compound 1 µM
[5] = second compound 0.0316 µM, first compound 3.16 µM
[6] = second compound 0.0316 µM, first compound 10 µM
[7] = second compound 0.1 µM, first compound 0.0316 µM
[8] = second compound 0.1 µM, first compound 0.1 µM
[9] = second compound 0.1 µM, first compound 0.316 µM
[10] = second compound 0.1 µM, first compound 1 µM
[11] = second compound 0.1 µM, first compound 3.16 µM
[12] = second compound 0.1 µM, first compound 10 µM
[13] = second compound 0.316 µM, first compound 0.0316 µM
[14] = second compound 0.316 µM, first compound 0.1 µM
[15] = second compound 0.316 µM, first compound 0.316 µM
[16] = second compound 0.316 µM, first compound 1 µM
[17] = second compound 0.316 µM, first compound 3.16 µM
[18] = second compound 0.316 µM, first compound 10 µM
[19] = second compound 1 µM, first compound 0.0316 µM
[20] = second compound 1 µM, first compound 0.1 µM
[21] = second compound 1 µM, first compound 0.316 µM
[22] = second compound 1 µM, first compound 1 µM
[23] = second compound 1 µM, first compound 3.16 µM
[24] = second compound 1 µM, first compound 10 µM
[25] = second compound 3.16 µM, first compound 0.0316 µM
[26] = second compound 3.16 µM, first compound 0.1 µM
[27] = second compound 3.16 µM, first compound 0.316 µM
[28] = second compound 3.16 µM, first compound 1 µM
[29] = second compound 3.16 µM, first compound 3.16 µM
[30] = second compound 3.16 µM, first compound 10 µM
[31] = second compound 10 µM, first compound 0.0316 µM
[32] = second compound 10 µM, first compound 0.1 µM
[33] = second compound 10 µM, first compound 0.316 µM
[34] = second compound 10 µM, first compound 1 µM
[35] = second compound 10 µM, first compound 3.16 µM
[36] = second compound 10 µM, first compound 10 µM
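Further: spheroids exposed to the agents for 7 days before readout.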

## COc1ccc([C@@H](O)c2cc(-c3ncnc4cc(N5CCOCC5)ccc34)c(F)cc2Cl)nn1 + CN1CCN(c2cc(C(=O)Nc3cc4cc(-c5cnn(C)c5)ccc4cn3)ccn2)CC1
Second compound 0.0316 µM
  IC50: > 10 µM
Second compound 0.1 µM
  IC50: > 10 µM
Second compound 0.316 µM
  IC50: < 0.0316 µM
Second compound 1 µM
  IC50: < 0.0316 µM
Second compound 3.16 µM
  IC50: < 0.0316 µM
Second compound 10 µM
  IC50: < 0.0316 µM
[1]
  viability, T/C: 112%
[2]
  viability, T/C: 131%
[3]
  viability, T/C: 123%
[4]
  viability, T/C: 122%
[5]
  viability, T/C: 112%
[6]
  viability, T/C: 85.4%
[7]
  viability, T/C: 87.8%
[8]
  viability, T/C: 87.7%
[9]
  viability, T/C: 85.6%
[10]
  viability, T/C: 91.5%
[11]
  viability, T/C: 90.2%
[12]
  viability, T/C: 76.1%
[13]
  viability, T/C: 35.9%
[14]
  viability, T/C: 33.1%
[15]
  viability, T/C: 30.8%
[16]
  viability, T/C: 25.4%
[17]
  viability, T/C: 24.9%
[18]
  viability, T/C: 24.7%
[19]
  viability, T/C: 0.11%
[20]
  viability, T/C: 0.13%
[21]
  viability, T/C: 0.13%
[22]
  viability, T/C: 0.11%
[23]
  viability, T/C: 0.22%
[24]
  viability, T/C: 1.37%
[25]
  viability, T/C: 0.13%
[26]
  viability, T/C: 0.14%
[27]
  viability, T/C: 1.21%
[28]
  viability, T/C: 1.06%
[29]
  viability, T/C: 2.69%
[30]
  viability, T/C: 1.48%
[31]
  viability, T/C: 0.14%
[32]
  viability, T/C: 2.05%
[33]
  viability, T/C: 1.47%
[34]
  viability, T/C: 0.25%
[35]
  viability, T/C: 1.52%
[36]
  viability, T/C: 2.52%

## COc1cccc2c1C(=O)c1c(O)c3c(c(O)c1C2=O)CC(O)(C(=O)CO)CC3OC1CC(N)C(O)C(C)O1 (stereo unspecified) + CN1CCN(c2cc(C(=O)Nc3cc4cc(-c5cnn(C)c5)ccc4cn3)ccn2)CC1
Second compound 0.0316 µM
  IC50: 2.21 µM
Second compound 0.1 µM
  IC50: 1.84 µM
Second compound 0.316 µM
  IC50: < 0.0316 µM
Second compound 1 µM
  IC50: < 0.0316 µM
Second compound 3.16 µM
  IC50: < 0.0316 µM
Second compound 10 µM
  IC50: < 0.0316 µM
[1]
  viability, T/C: 108%
[2]
  viability, T/C: 119%
[3]
  viability, T/C: 93.7%
[4]
  viability, T/C: 66.1%
[5]
  viability, T/C: 45.2%
[6]
  viability, T/C: 15.5%
[7]
  viability, T/C: 123%
[8]
  viability, T/C: 109%
[9]
  viability, T/C: 83.3%
[10]
  viability, T/C: 65%
[11]
  viability, T/C: 37.8%
[12]
  viability, T/C: 17.4%
[13]
  viability, T/C: 31%
[14]
  viability, T/C: 38%
[15]
  viability, T/C: 32.9%
[16]
  viability, T/C: 26.4%
[17]
  viability, T/C: 13.3%
[18]
  viability, T/C: 11.1%
[19]
  viability, T/C: 0.14%
[20]
  viability, T/C: 1.85%
[21]
  viability, T/C: 0.14%
[22]
  viability, T/C: 0.11%
[23]
  viability, T/C: 0.09%
[24]
  viability, T/C: 1.32%
[25]
  viability, T/C: 0.12%
[26]
  viability, T/C: 0.2%
[27]
  viability, T/C: 0.67%
[28]
  viability, T/C: 0.09%
[29]
  viability, T/C: 1.78%
[30]
  viability, T/C: 1.28%
[31]
  viability, T/C: 0.16%
[32]
  viability, T/C: 0.15%
[33]
  viability, T/C: 0.16%
[34]
  viability, T/C: 0.15%
[35]
  viability, T/C: 1.57%
[36]
  viability, T/C: 1.56%

## C=C(F)C(=O)N1CCN(c2nc(OCC3CCCN3C)nc3c2CCN(c2cccc4cccc(Cl)c24)C3)CC1CC#N (stereo unspecified) + CNC(=O)c1ccc(Nc2nc(OC3CCCC3)c3c(-c4ccc5nc(C)oc5c4)c[nH]c3n2)c(OC)c1
Second compound 0.0316 µM
  IC50: 5.65 µM
Second compound 0.1 µM
  IC50: 5.63 µM
Second compound 0.316 µM
  IC50: 3.48 µM
Second compound 1 µM
  IC50: < 0.0316 µM
Second compound 3.16 µM
  IC50: < 0.0316 µM
Second compound 10 µM
  IC50: < 0.0316 µM
[1]
  viability, T/C: 109%
[2]
  viability, T/C: 99.7%
[3]
  viability, T/C: 97.5%
[4]
  viability, T/C: 105%
[5]
  viability, T/C: 94.8%
[6]
  viability, T/C: 6.03%
[7]
  viability, T/C: 89.8%
[8]
  viability, T/C: 104%
[9]
  viability, T/C: 90.7%
[10]
  viability, T/C: 91.9%
[11]
  viability, T/C: 103%
[12]
  viability, T/C: 4.38%
[13]
  viability, T/C: 61.1%
[14]
  viability, T/C: 50.1%
[15]
  viability, T/C: 58.1%
[16]
  viability, T/C: 44%
[17]
  viability, T/C: 57.4%
[18]
  viability, T/C: 3.61%
[19]
  viability, T/C: 36.6%
[20]
  viability, T/C: 36.2%
[21]
  viability, T/C: 32.7%
[22]
  viability, T/C: 38.5%
[23]
  viability, T/C: 47%
[24]
  viability, T/C: 0.95%
[25]
  viability, T/C: 28.3%
[26]
  viability, T/C: 32%
[27]
  viability, T/C: 29.9%
[28]
  viability, T/C: 31.3%
[29]
  viability, T/C: 36.6%
[30]
  viability, T/C: 4.89%
[31]
  viability, T/C: 29%
[32]
  viability, T/C: 33.1%
[33]
  viability, T/C: 30.9%
[34]
  viability, T/C: 29.8%
[35]
  viability, T/C: 38%
[36]
  viability, T/C: 5.43%
